Measurements taken from PubChem BioAssay (NCI).
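Cells were grown in 96-well plates and exposed to each compound for 48 hours at five concentrations; endpoints were interpolated linearly between bracketing concentrations, or set to the highest concentration if not reached. TGI is the concentration that stops growth completely.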

How the values were obtained:
Test in all cases: NCI tumour cell line growth inhibition, 48 h
[1] = system: OVCAR-3 ovarian
[2] = system: LOX IMVI melanoma
[3] = system: EKVX NSCLC
[4] = system: KM12 colon
[5] = system: UO-31 renal
[6] = system: MALME-3M melanoma
[7] = system: HCT-15 colon
[8] = system: UACC-62 melanoma
[9] = system: U251 CNS
[10] = system: UACC-257 melanoma
[11] = system: CCRF-CEM leukemia
[12] = system: K-562 leukemia
[13] = system: HCT-116 colon
[14] = system: NCI-H522 lung
[15] = system: OVCAR-5 ovarian
[16] = system: SF-295 CNS
[17] = system: MOLT-4 leukemia
[18] = system: NCI-H23 lung
[19] = system: HL-60(TB) leukemia
[20] = system: OVCAR-8 ovarian

CC1=C(Cl)C=CP(=O)(Oc2ccccc2)C1 (stereo not given)
TGI [1]: > 100 µM | TGI [2]: > 100 µM | TGI [3]: > 100 µM | TGI [4]: > 100 µM | TGI [5]: > 100 µM | TGI [6]: > 100 µM | TGI [7]: > 100 µM | TGI [8]: > 100 µM | TGI [9]: > 100 µM | TGI [10]: > 100 µM | TGI [11]: > 10 µM | TGI [12]: > 10 µM | TGI [13]: > 100 µM | TGI [14]: 29.9 µM | TGI [15]: > 100 µM | TGI [16]: > 100 µM | TGI [17]: > 10 µM | TGI [18]: > 100 µM | TGI [19]: > 10 µM | TGI [20]: 60.6 µM

COc1ccc(/C=c2\sc3n(c2=O)CCN=3)cc1
TGI [1]: > 100 µM | TGI [2]: > 100 µM | TGI [3]: > 100 µM | TGI [4]: > 100 µM | TGI [5]: > 100 µM | TGI [6]: > 100 µM | TGI [7]: > 100 µM | TGI [8]: > 100 µM | TGI [9]: > 100 µM | TGI [10]: > 100 µM | TGI [11]: > 100 µM | TGI [12]: > 100 µM | TGI [13]: > 100 µM | TGI [14]: > 100 µM | TGI [15]: > 100 µM | TGI [16]: > 100 µM | TGI [17]: > 100 µM | TGI [18]: > 100 µM | TGI [19]: > 100 µM | TGI [20]: > 100 µM

Nc1c(S(=O)(=O)O)cc2cc(S(=O)(=O)O)ccc2c1N=Nc1ccc(-c2ccc(N=Nc3c(N)c(S(=O)(=O)O)cc4cc(S(=O)(=O)O)ccc34)c(S(=O)(=O)O)c2)cc1
TGI [1]: > 100 µM | TGI [2]: > 100 µM | TGI [3]: > 100 µM | TGI [4]: > 100 µM | TGI [5]: > 100 µM | TGI [6]: > 100 µM | TGI [7]: > 100 µM | TGI [8]: > 100 µM | TGI [9]: > 100 µM | TGI [10]: > 100 µM | TGI [11]: > 100 µM | TGI [12]: > 100 µM | TGI [13]: > 100 µM | TGI [14]: > 100 µM | TGI [15]: > 100 µM | TGI [16]: > 100 µM | TGI [17]: > 100 µM | TGI [18]: > 100 µM | TGI [19]: > 100 µM | TGI [20]: > 100 µM

COc1ccc(C(=C2C=CC=C2)c2ccc(OC)cc2)cc1
TGI [1]: > 100 µM | TGI [2]: 33.7 µM | TGI [3]: > 100 µM | TGI [4]: > 100 µM | TGI [5]: > 100 µM | TGI [6]: 81.8 µM | TGI [7]: 74 µM | TGI [8]: 98.1 µM | TGI [9]: 71.6 µM | TGI [10]: > 100 µM | TGI [11]: 53 µM | TGI [12]: > 100 µM | TGI [13]: 84.8 µM | TGI [14]: 40.4 µM | TGI [15]: 88.5 µM | TGI [16]: 54.4 µM | TGI [17]: 40.3 µM | TGI [18]: > 100 µM | TGI [19]: > 100 µM | TGI [20]: > 100 µM

Oc1ccc(-c2nc3ccc(Br)cc3s2)cc1
TGI [1]: 31.8 µM | TGI [2]: 30.1 µM | TGI [3]: 28.6 µM | TGI [4]: 41.6 µM | TGI [5]: 44.4 µM | TGI [6]: 90.9 µM | TGI [7]: 67.5 µM | TGI [8]: 27.4 µM | TGI [9]: 50.8 µM | TGI [10]: 51.1 µM | TGI [11]: 16.5 µM | TGI [12]: 73.1 µM | TGI [13]: 64.1 µM | TGI [14]: 22.9 µM | TGI [15]: 63.8 µM | TGI [16]: 33 µM | TGI [17]: > 100 µM | TGI [18]: 76 µM | TGI [19]: 56.3 µM | TGI [20]: 49.3 µM

CCCCCCCC/C=C\CCCCCCCCCCCC(=O)O
TGI [1]: 36.5 µM | TGI [2]: 70.8 µM | TGI [3]: 92.8 µM | TGI [4]: 70.8 µM | TGI [5]: > 125 µM | TGI [6]: > 125 µM | TGI [7]: 122 µM | TGI [8]: 102 µM | TGI [9]: 110 µM | TGI [10]: > 125 µM | TGI [11]: 57.5 µM | TGI [12]: 47.4 µM | TGI [13]: 60.9 µM | TGI [14]: 40 µM | TGI [15]: > 125 µM | TGI [16]: 116 µM | TGI [17]: 95.2 µM | TGI [18]: 80.8 µM | TGI [19]: 34.6 µM | TGI [20]: > 109 µM
